Reference: patent publication US20120328569A1, “INHIBITORS OF HEPATITIS C VIRUS NS5B POLYMERASE” (priority 2010, published 2012)

These molecules were tested on HCV genotype 1b replicon (assay: HCV replicon assay, cell ELISA with antibody to replicon-encoded NS3/4A (genotype 1b replicon)). Conditions: Hepatitis C virus, 96 h, read-out: 1b IC50(nM), HCV genotype 1b replicon; 96 hours incubation; NS3/4A cell ELISA.
Assay type: cell-based, hepatitis C virus
Summary of the method: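 Replicon-harbouring cells carrying neomycin phosphotransferase were incubated 96 h with a compound dilution series without G418. Replication was quantified indirectly by a cell ELISA detecting replicon-encoded NS3/4A. IC50 values were calculated relative to DMSO control with a four-parameter fit.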

Compound	IC50
CNC(=O)c1c(-c2ccc(F)cc2)oc2cc(N(C)S(C)(=O)=O)c(-c3ccc(OCCO)c(-c4nc5c(F)cccc5o4)c3)cc12 [Example 620]	1.66 nM
CNC(=O)c1c(-c2ccc(F)cc2)oc2cc(N(C)S(C)(=O)=O)c(-c3ccc(OCC(F)F)c(-c4cc5ccccc5[nH]4)c3)cc12 [Example 622]	647 nM
CNC(=O)c1c(-c2ccc(F)cc2)oc2cc(N(C)S(C)(=O)=O)c(-c3cc(OS(C)(=O)=O)cc(-c4nc5c(F)cccc5o4)c3)cc12 [Example 627]	1.4 nM
CNC(=O)c1c(-c2ccc(F)cc2)oc2cc(N(C)S(C)(=O)=O)c(-c3ccc(OC)c(-c4nc5cc(C(N)=O)ccc5o4)c3)cc12 [Example 632]	4.61 nM
CNC(=O)c1c(-c2ccc(F)cc2)oc2cc(N(C)S(C)(=O)=O)c(-c3ccc(OC)c(-c4nc5c(C(=O)NC)cccc5o4)c3)cc12 [Example 637]	4.03 nM
CNC(=O)c1c(-c2ccc(F)cc2)oc2cc(N(C)S(C)(=O)=O)c(-c3ccc(OC)c(-c4nc5c(C(=O)Nc6ccccc6)cccc5o4)c3)cc12 [Example 638]	29.8 nM
CNC(=O)c1c(-c2ccc(F)cc2)oc2cc(N(C)S(C)(=O)=O)c(-c3cc(C(=O)O)cc(-c4nc5c(F)cccc5o4)c3)cc12 [Example 650, 3-(4-fluorobenzo[d]oxazol-2-yl)-5-(2-(4-fluorophenyl)-3-(methylcarbamoyl)-6-(N-methylmethylsulfonamido)benzofuran-5-yl)benzoic acid]	55.7 nM
CNC(=O)c1c(-c2ccc(F)cc2)oc2cc(N(C)S(C)(=O)=O)c(-c3ccc(C(=O)O)c(-c4nc5c(F)cccc5o4)c3)cc12 [Example 651]	155 nM
CNC(=O)c1cc(-c2nc3c(F)cccc3o2)cc(-c2cc3c(C(=O)NC)c(-c4ccc(F)cc4)oc3cc2N(C)S(C)(=O)=O)c1 [Example 654]	3.65 nM
CNC(=O)c1c(-c2ccc(F)cc2)oc2cc(N(C)S(C)(=O)=O)c(-c3ccc(C(=O)N(C)C)c(-c4nc5c(F)cccc5o4)c3)cc12 [Example 655]	2.52 nM
CNC(=O)c1ccc(-c2cc3c(C(=O)NC)c(-c4ccc(F)cc4)oc3cc2N(C)S(C)(=O)=O)cc1-c1nc2c(F)cccc2o1 [Example 656]	8.41 nM
CNC(=O)c1c(-c2ccc(F)cc2)oc2cc(N(C)S(C)(=O)=O)c(-c3ccc(OC)c(-c4nc5ccc(-c6cncnc6)cc5o4)c3)cc12 [Example 658, 2-(4-fluorophenyl)-5-(4-methoxy-3-(6-(pyrimidin-5-yl)benzo[d]oxazol-2-yl)phenyl)-N-methyl-6-(N-methylmethylsulfonamido) benzofuran-3-carboxamide]	8.53 nM
CNC(=O)c1c(-c2ccc(F)cc2)oc2cc(N(C)S(C)(=O)=O)c(-c3ccc(OC)c(-c4nc5ccc(-c6cccnc6)cc5o4)c3)cc12 [Example 659]	8.62 nM
CNC(=O)c1c(-c2ccc(F)cc2)oc2cc(N(C)S(C)(=O)=O)c(-c3ccc(OC)c(-c4nc5cc(-c6cncnc6)ccc5o4)c3)cc12 [Example 663]	2.5 nM
CNC(=O)c1c(-c2ccc(F)cc2)oc2cc(N(C)S(C)(=O)=O)c(-c3cccc(-c4cc5c(F)cc(F)cc5s4)c3)cc12 [Example 685]	12 nM
CNC(=O)c1c(-c2ccc(F)cc2)oc2cc(N(C)S(C)(=O)=O)c(-c3ccc(OC)c(-c4csc5ncccc45)c3)cc12 [Example 686]	17.6 nM
CNC(=O)c1c(-c2ccc(F)cc2)oc2cc(N(C)S(C)(=O)=O)c(-c3ccc(OC)c(-c4cc5ccc(F)cc5s4)c3)cc12 [Example 687]	27.3 nM
CNC(=O)c1c(-c2ccc(F)cc2)oc2cc(N(C)S(C)(=O)=O)c(-c3ccc(OC)c(-c4cc5ncccc5s4)c3)cc12 [Example 688]	7.53 nM
CNC(=O)c1c(-c2ccc(F)cc2)oc2cc(N(CC3CC(O)C3)S(C)(=O)=O)c(-c3ccc(OC)c(-c4nc5c(F)cccc5o4)c3)cc12 (stereo not shown) [Example 701]	6.21 nM
CNC(=O)c1c(-c2ccc(F)cc2)oc2cc(N(CC3CC3)S(C)(=O)=O)c(-c3ccc(OC)c(-c4nc5c(F)cc(F)cc5o4)c3)cc12 [Example 705]	15.6 nM
CNC(=O)c1c(-c2ccc(F)cc2)oc2cc(N(CC3CC3)S(C)(=O)=O)c(-c3ccc(OC)c(-c4nc5cc(F)cc(F)c5o4)c3)cc12 [Example 706]	16.7 nM
CNC(=O)c1c(-c2ccc(F)cc2)oc2cc(N(Cc3cccnc3)S(C)(=O)=O)c(-c3ccc(OC)c(-c4nc5c(F)cccc5o4)c3)cc12 [Example 707]	4.93 nM
CNC(=O)c1c(-c2ccc(F)cc2)oc2cc(N(Cc3cccnc3)S(C)(=O)=O)c(-c3ccc(OC)c(-c4nc5c(C#N)cccc5o4)c3)cc12 [Example 708]	3.95 nM
CNC(=O)c1c(-c2ccc(F)cc2)oc2cc(N(Cc3cccnc3)S(C)(=O)=O)c(-c3ccc(OC)c(-c4nc5c(F)cc(F)cc5o4)c3)cc12 [Example 709]	6.05 nM
CNC(=O)c1c(-c2ccc(F)cc2)oc2cc(N(CC3CCS(=O)(=O)C3)S(C)(=O)=O)c(-c3ccc(OC)c(-c4nc5c(F)cccc5o4)c3)cc12 (stereo not shown) [Example 717]	2.84 nM
CNC(=O)c1c(-c2ccc(F)cc2)oc2cc(N(CC3CCS(=O)(=O)C3)S(C)(=O)=O)c(-c3ccc(OC)c(-c4nc5c(F)cc(F)cc5o4)c3)cc12 (stereo not shown) [Example 718]	3.9 nM

Compound	IC50
CNC(=O)c1c(-c2ccc(F)cc2)oc2cc(N(CC3CCS(=O)(=O)C3)S(C)(=O)=O)c(-c3cccc(-c4nc5ncccc5o4)c3)cc12 (stereo not shown) [Example 719]	3.14 nM
CNC(=O)c1c(-c2ccc(F)cc2)oc2cc(N(C3COC3)S(C)(=O)=O)c(-c3ccc(OC)c(-c4nc5c(F)cccc5o4)c3)cc12 [Example 720]	41.6 nM
CNC(=O)c1c(-c2ccc(F)cc2)oc2cc(N(C3COC3)S(C)(=O)=O)c(-c3ccc(OC)c(-c4nc5c(F)cc(F)cc5o4)c3)cc12 [Example 721]	4.94 nM
CNC(=O)c1c(-c2ccc(F)cc2)oc2cc(N(C3COC3)S(C)(=O)=O)c(-c3ccc(OC)c(-c4nc5c(C#N)cccc5o4)c3)cc12 [Example 722]	3.03 nM
CNC(=O)c1c(-c2ccc(F)cc2)oc2cc(N(CC3(C)COC3)S(C)(=O)=O)c(-c3cccc(-c4nc5ncccc5o4)c3)cc12 [Example 723]	2.31 nM
CNC(=O)c1c(-c2ccc(F)cc2)oc2cc(N(CC3(C)COC3)S(C)(=O)=O)c(-c3ccc(OC)c(-c4nc5c(F)cccc5o4)c3)cc12 [Example 724]	4.47 nM
CNC(=O)c1c(-c2ccc(F)cc2)oc2cc(N(CC3(C)COC3)S(C)(=O)=O)c(-c3ccc(OC)c(-c4nc5c(F)cc(F)cc5o4)c3)cc12 [Example 725]	10.5 nM
CNC(=O)c1c(-c2ccc(F)cc2)oc2cc(N(C3CCOC3)S(C)(=O)=O)c(-c3ccc(OC)c(-c4nc5c(F)cccc5o4)c3)cc12 (stereo not shown) [Example 726]	5.54 nM
CNC(=O)c1c(-c2ccc(F)cc2)oc2cc(N(CC3CCOC3)S(C)(=O)=O)c(-c3ccc(OC)c(-c4nc5c(F)cc(F)cc5o4)c3)cc12 (stereo not shown) [Example 729]	3.3 nM
CNC(=O)c1c(-c2ccc(F)cc2)oc2cc(N(CCC(C)(C)C#N)S(C)(=O)=O)c(-c3ccc(OC)c(-c4nc5c(F)cccc5o4)c3)cc12 [Example 733]	7.78 nM
CNC(=O)c1c(-c2ccc(F)cc2)oc2cc(N(CCC(C)(C)C#N)S(C)(=O)=O)c(-c3ccc(OC)c(-c4nc5c(F)cc(F)cc5o4)c3)cc12 [Example 735]	10.5 nM
CNC(=O)c1c(-c2ccc(F)cc2)oc2cc(N(CC3(C#N)CC3)S(C)(=O)=O)c(-c3ccc(OC)c(-c4nc5c(F)cccc5o4)c3)cc12 [Example 737]	19 nM
CNC(=O)c1c(-c2ccc(F)cc2)oc2cc(N(CC3(C#N)CC3)S(C)(=O)=O)c(-c3ccc(OC)c(-c4nc5c(F)cc(F)cc5o4)c3)cc12 [Example 738]	7.62 nM
CNC(=O)c1c(-c2ccc(F)cc2)oc2cc(N(C3CC(C#N)C3)S(C)(=O)=O)c(-c3cccc(-c4nc5ncccc5o4)c3)cc12 (stereo not shown) [Example 739]	2.17 nM
CNC(=O)c1c(-c2ccc(F)cc2)oc2cc(N(C3CC(C#N)C3)S(C)(=O)=O)c(-c3ccc(OC)c(-c4nc5c(F)cccc5o4)c3)cc12 (stereo not shown) [Example 740]	4.76 nM
CNC(=O)c1c(-c2ccc(F)cc2)oc2cc(N(C3CC(C#N)C3)S(C)(=O)=O)c(-c3ccc(OC)c(-c4nc5c(C#N)cccc5o4)c3)cc12 (stereo not shown) [Example 741]	5.85 nM
CNC(=O)c1c(-c2ccc(F)cc2)oc2cc(N(C3CC(C#N)C3)S(C)(=O)=O)c(-c3ccc(OC)c(-c4nc5c(F)cc(F)cc5o4)c3)cc12 (stereo not shown) [Example 742]	4.57 nM
CNC(=O)c1c(-c2ccc(F)cc2)oc2cc(N(CC3CCOC(c4ccccc4)O3)S(C)(=O)=O)c(-c3ccc(OC)c(-c4nc5c(F)cccc5o4)c3)cc12 (stereo not shown) [Example 769]	80.7 nM
CNC(=O)c1c(-c2ccc(F)cc2)oc2cc(N(CCC3COC(C)(C)O3)S(C)(=O)=O)c(-c3ccc(OC)c(-c4nc5c(F)cccc5o4)c3)cc12 (stereo not shown) [Example 770]	11.3 nM
CNC(=O)c1c(-c2ccc(F)cc2)oc2cc(N(CCC3COC(C)(C)O3)S(C)(=O)=O)c(-c3ccc(OC)c(-c4nc5c(F)cc(F)cc5o4)c3)cc12 (stereo not shown) [Example 771]	13.3 nM
CNC(=O)c1c(-c2ccc(F)cc2)oc2cc(N(CC(C)(C)O)S(C)(=O)=O)c(-c3ccc(OC)c(-c4nc5cccc(F)c5o4)c3)cc12 [Example 778]	24.8 nM
CNC(=O)c1c(-c2ccc(F)cc2)oc2cc(N(CC(C)(C)O)S(C)(=O)=O)c(-c3ccc(OC)c(-c4nc5c(F)cccc5o4)c3)cc12 [Example 779]	8.28 nM
CNC(=O)c1c(-c2ccc(F)cc2)oc2cc(N(CC(C)(C)O)S(C)(=O)=O)c(-c3ccc(OC)c(-c4nc5cc(F)cc(F)c5o4)c3)cc12 [Example 780]	18.5 nM
CNC(=O)c1c(-c2ccc(F)cc2)oc2cc(N(C(CO)CO)S(C)(=O)=O)c(-c3ccc(OC)c(-c4nc5c(F)cccc5o4)c3)cc12 [Example 782]	5.41 nM
CNC(=O)c1c(-c2ccc(F)cc2)oc2cc(N(CCC(O)CO)S(C)(=O)=O)c(-c3ccc(OC)c(-c4nc5c(F)cccc5o4)c3)cc12 (stereo not shown) [Example 784]	3.61 nM
CNC(=O)c1c(-c2ccc(F)cc2)oc2cc(N(CCC(O)CO)S(C)(=O)=O)c(-c3ccc(OC)c(-c4nc5c(F)cc(F)cc5o4)c3)cc12 (stereo not shown) [Example 785]	3.55 nM
